Results published in PubChem BioAssay (NCI).
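48-hour exposure; five concentrations; linearly interpolated endpoints. At the GI50, growth is halved. TGI: total growth inhibition.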

Key:
Assay in all cases: DTP human tumour cell line panel, 48 h; in the data active = GI50 below about 0.43 µM; inactive = the rest
COLO 205 colon = test system: COLO 205 colon
HOP-92 NSCLC = test system: HOP-92 NSCLC
RXF 393 renal = test system: RXF 393 renal
T-47D breast = test system: T-47D breast
OVCAR-4 ovarian = test system: OVCAR-4 ovarian
MCF7 breast = test system: MCF7 breast
HT29 colon = test system: HT29 colon
DMS 114 small cell lung = test system: DMS 114 small cell lung
DLD-1 colon = test system: DLD-1 colon
HOP-18 NSCLC = test system: HOP-18 NSCLC
KM12 colon = test system: KM12 colon
SNB-78 CNS = test system: SNB-78 CNS

C[C@]12CC[C@@H]3c4ccc(OCCN5CCCC5)cc4CC[C@H]3[C@@H]1CCC2=O
35.6 µM: TGI (COLO 205 colon)
> 100 µM: TGI (HOP-92 NSCLC) | TGI (RXF 393 renal) | TGI (T-47D breast) | TGI (OVCAR-4 ovarian) | TGI (HT29 colon)
48.2 µM: TGI (MCF7 breast)

CCCCCCCCCCCCCCCC(=O)OC1C(O)C(CO)OC(OC)C1NC(=O)N(CCCl)N=O (stereo not given)
28 µM: TGI (DMS 114 small cell lung)
26.8 µM: TGI (HT29 colon)
36.3 µM: TGI (OVCAR-4 ovarian)
31.5 µM: TGI (DLD-1 colon)
31.3 µM: TGI (HOP-18 NSCLC)
35.1 µM: TGI (KM12 colon)
40.2 µM: TGI (SNB-78 CNS)
40.4 µM: TGI (COLO 205 colon)

CCCOC1OC(CS(=O)(=O)O)C(O)C(O)C1O (stereo not given)
> 100 µM: TGI (COLO 205 colon) | TGI (HOP-92 NSCLC) | TGI (RXF 393 renal) | TGI (T-47D breast) | TGI (OVCAR-4 ovarian) | TGI (MCF7 breast) | TGI (HT29 colon) | TGI (KM12 colon)

O=c1nc2sc3ccc4ccccc4c3n2[nH]c1=O
38.1 µM: TGI (RXF 393 renal)
> 100 µM: TGI (COLO 205 colon) | TGI (DMS 114 small cell lung) | TGI (DLD-1 colon) | TGI (HOP-18 NSCLC) | TGI (HT29 colon) | TGI (KM12 colon) | TGI (SNB-78 CNS)
81.2 µM: TGI (OVCAR-4 ovarian)

CCCCN=C1OCc2[nH][nH]c(=O)c21
> 100 µM: TGI (COLO 205 colon) | TGI (HOP-92 NSCLC) | TGI (DMS 114 small cell lung) | TGI (DLD-1 colon) | TGI (RXF 393 renal) | TGI (OVCAR-4 ovarian) | TGI (HT29 colon) | TGI (KM12 colon) | TGI (SNB-78 CNS)

O=C(O)Cn1c2c(c3c(O)cccc31)C(=O)c1ccccc1-2
> 100 µM: TGI (COLO 205 colon) | TGI (HOP-92 NSCLC) | TGI (RXF 393 renal) | TGI (T-47D breast) | TGI (OVCAR-4 ovarian) | TGI (MCF7 breast) | TGI (HT29 colon) | TGI (KM12 colon)
inactive: GI50 (COLO 205 colon) > 100 µM | GI50 (HOP-92 NSCLC) > 100 µM | GI50 (RXF 393 renal) > 100 µM | GI50 (T-47D breast) > 100 µM | GI50 (OVCAR-4 ovarian) > 100 µM | GI50 (MCF7 breast) > 100 µM | GI50 (HT29 colon) > 100 µM | GI50 (KM12 colon) > 100 µM

CCOC(=O)NC(Nc1ccc(Cl)cn1)(C(F)(F)F)C(F)(F)F
> 100 µM: TGI (RXF 393 renal) | TGI (T-47D breast) | TGI (MCF7 breast) | TGI (HT29 colon) | TGI (KM12 colon)

N#CCCN(CCC#N)c1ccc(/C=C2\N=C(c3cc([N+](=O)[O-])ccc3Cl)N(NC(=O)CC(=O)Nc3ccccc3Cl)C2=O)cc1
> 100 µM: TGI (COLO 205 colon) | TGI (HOP-92 NSCLC) | TGI (DMS 114 small cell lung) | TGI (DLD-1 colon) | TGI (RXF 393 renal) | TGI (OVCAR-4 ovarian) | TGI (KM12 colon) | TGI (SNB-78 CNS)

CC(=O)N/C(=C\c1ccc(/C=C(\NC(C)=O)C2=NC3C(=O)c4ccccc4C(=O)C3N2)cc1)C1=NC2C(=O)c3ccccc3C(=O)C2N1 (stereo not given)
> 100 µM: TGI (COLO 205 colon) | TGI (HOP-92 NSCLC) | TGI (DMS 114 small cell lung) | TGI (DLD-1 colon) | TGI (RXF 393 renal) | TGI (OVCAR-4 ovarian) | TGI (HOP-18 NSCLC) | TGI (HT29 colon) | TGI (KM12 colon) | TGI (SNB-78 CNS)
